Source: US4196205A, “3-Acetoxymethyl-7-(iminoacetamido)-cephalosporanic acid derivatives” (priority 1976, dated 1980)
Like-named read-outs stand apart in the source and are kept apart here.

How the values were obtained:
[1] = Acute toxicity in mice; assay type: in vivo, female mice of Swiss CD1 Specific Pathogen Free Strain; conditions: for Total Mortality: 4 days
Method: The acute toxicity of the product of Example 7 was determined on groups of 8 to 10 female mice of Swiss CD1 Specific Pathogen Free Strain (stock CH.River-France), with an average weight of 19 to 21 g, for each dose of the compound.
The animals had injection in the caudal vein in a variable volume at a rate of 1 ml/mn of the product of Example 7 dissolved at a concentration of 100 mg/ml in sterile apyrogen distilled water.

[2] = tested on: Salmonella typhimurium 5210; test: Experimental infection with Salmonella typhimurium in mice; assay type: in vivo
Method: Groups of 10 mice with an average weight of 20.5 g were intraperitoneally injected with 0.5 ml of a 24 hour old culture in oxoid bouillon of Salmonella typhimurium 5210 diluted 1/75 with distilled water. The product of Example 7 was administered subcutaneously one hour and 4, 8, 24 and 32 hours after the infection and the results, determined as before, are reported in the following Table.

[3] = tested on: Streptococcus faecalis 5 432; test: MIC, dilution in liquid medium; assay type: cell-based
Method: (§1) The method used was a dilution of a liquid medium where a series of tubes received the same quantity of a sterile nutritive media and increasing doses of the test compounds were placed therein. Then each tube was seeded with a bacterial strain and was incubated for 24 to 48 hours at 37° C. in an oven. The increasing inhibition was determined by transillumination to determine the minimum inhibiting concentration (MIC in […]) and the results are reported in the following Tables.

[4] = tested on: Klebsiella pneumoniae Exp. 52 145; test: MIC, dilution in liquid medium; assay type: cell-based
Method: as §1

[5] = tested on: Streptococcus pyogenes A 561; test: MIC, dilution in liquid medium; assay type: cell-based
Method: as §1

[6] = tested on: Staphylococcus aureus UC 1 128 Pen-Resistant; test: MIC, dilution in liquid medium; assay type: cell-based
Method: as §1

[7] = tested on: Streptococcus faecalis 99 F 74; test: MIC, dilution in liquid medium; assay type: cell-based
Method: as §1

[8] = tested on: Escherichia Coli Sensible Tetracycline ATCC 9 637 = 1020; test: MIC, dilution in liquid medium; assay type: cell-based
Method: as §1

[9] = tested on: Staphylococcus aureus ATCC 5 638 Pen-Sensible = UC 1061; test: MIC, dilution in liquid medium; assay type: cell-based; conditions: 48 h
Method: as §1

[10] = tested on: Pseudomonas 3 935 Exp. SG; test: MIC, dilution in liquid medium; assay type: cell-based
Method: as §1

[11] = tested on: Staphylococcus aureus exp. n° 54 146; test: MIC, dilution in liquid medium; assay type: cell-based
Method: as §1

[12] = tested on: Salmonella typhimurium 420; test: MIC, dilution in liquid medium; assay type: cell-based
Method: as §1

[13] = tested on: Proteus mirabilis (indol-) A 235; test: MIC, dilution in liquid medium; assay type: cell-based
Method: as §1

[14] = tested on: Escherichia Coli Resistant Tetracycline ATCC 11 303 = UC 1261; test: MIC, dilution in liquid medium; assay type: cell-based
Method: as §1

[15] = tested on: Escherichia Coli Resistant Gentamicine, Tobramycine R 55 123 D; test: MIC, dilution in liquid medium; assay type: cell-based
Method: as §1

[16] = tested on: Escherichia Coli Exp. TO26 B6; test: MIC, dilution in liquid medium; assay type: cell-based
Method: as §1

[17] = tested on: Providencia Du 48; test: MIC, dilution in liquid medium; assay type: cell-based
Method: as §1

[18] = tested on: Bacillus subtilis ATCC 6 633; test: MIC, dilution in liquid medium; assay type: cell-based
Method: as §1

[19] = tested on: Proteus vulgaris (indol+) A 232; test: MIC, dilution in liquid medium; assay type: cell-based; conditions: Proteus vulgaris, read-out: M.I.C.
Method: as §1

[20] = tested on: Klebsiella pneumoniae 2 536 Resistant Gentamicine; test: MIC, dilution in liquid medium; assay type: cell-based
Method: as §1

Compound: CO/N=C(\C(=O)N[C@@H]1C(=O)N2C(C(=O)O)=C(COC(C)=O)CS[C@H]12)c1csc(N)n1 [Example 7, sodium 3-acetoxymethyl-7-[2-(2-amino-4-thiazolyl)-2-methoxyiminoacetamido]-ceph-3-eme-4-carboxylate]
- lethal dose ([1]; caudal vein, mice): above 2000 mg/kg
- Total Mortality ([1]; dose 500 mg, caudal vein): 0/10
- Total Mortality ([1]; dose 1000 mg, caudal vein): 0/10
- Total Mortality ([1]; dose 2000 mg, caudal vein): 0/8
- Symptomatology ([1]; following the injections and during the observation period): No symptoms of intoxication were noted
- MORTALITY AFTER 6J ([2]; 0,1 mg subcutaneously): 3
- MORTALITY AFTER 7J ([2]; 0,1 mg subcutaneously): 3
- MORTALITY AFTER 8J ([2]; 0,1 mg subcutaneously): 1
- Mice alive on the 10th day ([2]; 0,1 mg subcutaneously): 3/10
- MORTALITY AFTER 5J ([2]; 0,5 mg subcutaneously): 1
- MORTALITY AFTER 6J ([2]; 0,5 mg subcutaneously): 1
- MORTALITY AFTER 7J ([2]; 0,5 mg subcutaneously): 1
- Mice alive on the 10th day ([2]; 0,5 mg subcutaneously): 7/10
- MORTALITY AFTER 7J ([2]; 0,25 mg subcutaneously): 2
- MORTALITY AFTER 8J ([2]; 0,25 mg subcutaneously): 1
- MORTALITY AFTER 9J ([2]; 0,25 mg subcutaneously): 2
- Mice alive on the 10th day ([2]; 0,25 mg subcutaneously): 5/10
- MORTALITY AFTER 8J ([2]; 1 mg subcutaneously): 1
- Mice alive on the 10th day ([2]; 1 mg subcutaneously): 9/10
- Mice alive on the 10th day ([2]; 2 mg subcutaneously): 10/10
- M.I.C. ([3]; 24 H): 1 µg/mL
- M.I.C. ([3]; 48 H): 3 µg/mL
- M.I.C. ([4]; 24 H): ≤ 0,02 μg/ml
- M.I.C. ([4]; 48 H): ≤ 0.02 µg/mL
- M.I.C. ([5]; 24 H): 0,01 μg/ml
- M.I.C. ([5]; 48 H): 0,01 μg/ml
- M.I.C. ([6]; 24 H): 2 µg/mL
- M.I.C. ([6]; 48 H): 3 µg/mL
- M.I.C. ([7]; 24 H): 3 µg/mL
- MIC ([7]; Enterococcus faecalis, 99F74, 48 h, read-out: M.I.C.): 10 µg/mL
- M.I.C. ([8]; 24 H): 0,1 μg/ml
- MIC ([8]; Escherichia coli, ATCC9, 48 h, 48 H, read-out: M.I.C.): 0.1 µg/mL
- MIC [9]: 2 µg/mL
- M.I.C. ([10]; 24 H): 10 µg/mL
- M.I.C. ([10]; 48 H): 20 µg/mL
- M.I.C. ([11]; 48 H): 2 µg/mL
- MIC ([11]; Staphylococcus aureus, 24 h): 2 µg/mL
- M.I.C. ([12]; 24 H): 0,1 μg/ml
- M.I.C. ([12]; 48 H): 20 µg/mL
- M.I.C. ([13]; 24 H): ≤ 0,02 μg/ml
- M.I.C. ([13]; 48 H): ≤ 0,02 μg/ml
- M.I.C. ([14]; 24 H): ≤ 0,02 μg/ml
- M.I.C. ([14]; 48 H): ≤ 0,02 μg/ml
- M.I.C. ([15]; 24 H): 0,1 μg/ml
- M.I.C. ([15]; 48 H): 0,1 μg/ml
- M.I.C. ([16]; 24 H): 0,05 μg/ml
- M.I.C. ([16]; 48 H): 0,05 μg/ml
- M.I.C. ([17]; 24 H): 1 µg/mL
- M.I.C. ([17]; 48 H): 2 µg/mL
- M.I.C. ([18]; 24 H): 1 µg/mL
- M.I.C. ([18]; 48 H): 2 µg/mL
- MIC ([19]; 24 h): 0.2 µg/mL
- MIC ([19]; 48 h): 0.6 µg/mL
- M.I.C. ([20]; 24 H): 0,2 μg/ml
- M.I.C. ([20]; 48 H): 0,2 μg/ml
